This is an account of results in US10059723B2 (BIOMARIN PHARMACEUTICAL INC., priority 2011, dated 2018).

Molecules are shown by their SMILES.

The target in this assay is T1, HDAC1 (Homo sapiens, UniProt Q13547).
T1 construct: purchased BPS Bioscience 50051
As to the kind of experiment: HDAC activity inhibition assay, HDAC1. It is filed as biochemical. The following applies: 2 hours pre-incubation, Fluor-de-Lys substrate 10 μM. The method, then: The HDAC activity inhibition assay was performed as follows to determine the ability of a test compound to inhibit HDAC enzymatic activity. […] Following pre-incubation, Fluor-de-Lys™ substrate (Enzo Life Sciences, Plymouth Meeting, Pa., BML-KI104-0050) was added to a final concentration of 10 μM and plates were further incubated for 30 minutes at room temperature. […] IC50 values were calculated by using a sigmoidal dose-response (variable slope) equation in GraphPad Prism® 5 for Windows (GraphPad Software, La Jolla, Calif.).

T1 sequence (Q13547 whole entry): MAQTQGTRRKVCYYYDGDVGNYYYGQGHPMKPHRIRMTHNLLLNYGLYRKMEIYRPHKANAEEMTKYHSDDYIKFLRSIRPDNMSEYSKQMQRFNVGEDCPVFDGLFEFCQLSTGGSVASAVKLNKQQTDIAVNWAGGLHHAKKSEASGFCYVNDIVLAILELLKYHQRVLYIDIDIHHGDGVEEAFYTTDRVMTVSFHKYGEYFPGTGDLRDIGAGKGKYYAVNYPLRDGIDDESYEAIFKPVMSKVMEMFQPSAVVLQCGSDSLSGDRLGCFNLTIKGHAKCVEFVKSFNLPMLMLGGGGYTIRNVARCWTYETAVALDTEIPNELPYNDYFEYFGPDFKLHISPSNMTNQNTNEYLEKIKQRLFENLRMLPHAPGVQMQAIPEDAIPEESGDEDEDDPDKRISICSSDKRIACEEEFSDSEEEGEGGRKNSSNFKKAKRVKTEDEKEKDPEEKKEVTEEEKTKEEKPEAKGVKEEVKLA

Regarding `Cn1cc(/C=C/C(=O)Nc2ccc(F)cc2N)cn1` [C2], the IC50 (as a rule, the concentration needed to halve the response being measured) is more than 20 µM.
